Laboratory results reported in patent US20260062422A1 (Halda Therapeutics OpCo, Inc., priority 2022, published 2026).

Experiments:
[1] = test system: T-Rex 293 cell line SC3 cells having increased expression of androgen receptor protein due to exposure to doxycycline; experiment: Cellular growth inhibition, T-Rex 293 SC3 cells with doxycycline (androgen receptor induced), CellTiter-Glo; type: cell-based; settings: T-Rex 293 SC3 cells with 10 ng/mL doxycycline (increased androgen receptor expression)
Procedure, shortened: (§1)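 Luminescence read-out (CellTiter-Glo 2.0) after 72 h compound exposure; GI50 by four-parameter nonlinear regression, baseline set at zero luminescence. SC3 cells, a doxycycline-inducible wild-type AR clone of T-Rex 293, were cultured ±10 ng/mL doxycycline in charcoal-dextran FBS medium.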

[2] = test system: T47D cells; experiment: Cellular growth inhibition assay for T47D cells, CellTiter-Glo; type: cell-based, human; settings: 72 hours treatment, CellTiter-Glo 2.0 cell viability
Procedure, shortened: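 Cells are plated at 3000/well and allowed 24 h before treatment. Test compound in medium containing 0.5% DMSO is then added, with DMSO-only wells as negative control, and plates are incubated 72 h at 37 °C. ATP luminescence (CellTiter-Glo 2.0) is then fitted to four parameters to derive GI50.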

[3] = test system: T-Rex 293 cell line SC3 cells lacking increased expression of androgen receptor protein; experiment: Cellular growth inhibition, T-Rex 293 SC3 cells without doxycycline, CellTiter-Glo; type: cell-based; settings: T-Rex 293 SC3 cells not exposed to doxycycline, CellTiter-Glo 2.0
Procedure, shortened: as §1

[4] = test system: VCaP cells; experiment: Cellular growth inhibition assay for VCaP cells, CellTiter-Glo; type: cell-based, human; settings: 72 hours treatment, CellTiter-Glo 2.0
Procedure, shortened: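 GI50 values come from four-parameter curve fits of luminescence data normalized to a zero baseline. Compound, in medium with 0.5% DMSO, was added one day after plating and left for 72 h before CellTiter-Glo 2.0 addition.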

Row | GI50 ([2]; Homo sapiens, T47D, 72 h) [nM] | GI50 ([4]; Homo sapiens, VCaP, 72 h) [nM] | GI50 [2] [nM] | GI50 [4] [nM] | Compound | GI50 ([1]; 72 h) [nM] | GI50 ([3]; 72 h) [nM] | GI50 ([1]; 72 hours) [nM] | GI50 ([3]; 72 hours) [nM]
1 | > 3000 | < 500 |  |  | COC[C@@H]1N=C(c2ccc(OC3CC4(CCCN(c5ncc(C(=O)N[C@H]6C(C)(C)[C@@H](Oc7ccc(C#N)c(Cl)c7)C6(C)C)cn5)C4)C3)cc2)c2c(sc(C)c2C)-n2c(C)nnc21 [Compound I-567] | < 500 | > 3000 |  | 
2 | < 500 | < 500 |  |  | COC[C@@H]1N=C(c2ccc(OC3CC4(CCCN(c5ncc(C(=O)N[C@H]6C(C)(C)[C@H](Oc7ccc(C#N)c(Cl)c7)C6(C)C)cn5)C4)C3)cc2)c2c(sc(C)c2C)-n2c(C)nnc21 [Compound I-568] | < 500 | > 3000 |  | 
3 | > 3000 | < 500 |  |  | COCC[C@@H]1N=C(c2ccc(OC3CC4(CCCN(c5ncc(C(=O)N[C@H]6C(C)(C)[C@@H](Oc7ccc(C#N)c(Cl)c7)C6(C)C)cn5)C4)C3)cc2)c2c(sc(C)c2C)-n2c(C)nnc21 [Compound I-569] | < 500 | > 3000 |  | 
4 |  |  | > 3000 | < 500 | COCC[C@@H]1N=C(c2ccc(OC3CC4(CCCN(c5ncc(C(=O)N[C@H]6C(C)(C)[C@@H](Oc7ccc(C#N)c(Cl)c7)C6(C)C)cn5)C4)C3)cc2)c2c(sc(C)c2C)-n2c(C)nnc21 [Compound I-570] |  |  | < 500 | > 3000
5 | < 500 | < 500 |  |  | Cc1sc2c(c1C)C(c1ccc(C3CC(N4CCN(c5ncc(C(=O)N[C@H]6C(C)(C)[C@H](Oc7ccc(C#N)c(Cl)c7)C6(C)C)cn5)CC4)C3)cc1)=N[C@@H](C)c1nnc(C)n1-2 (stereo partly shown) [Compound I-571] | < 500 | 500 to 1500 |  | 
6 | < 500 | < 500 |  |  | Cc1sc2c(c1C)C(c1ccc(C3CC(N4CCN(c5ccc(C(=O)N[C@H]6C(C)(C)[C@H](Oc7ccc(C#N)c(Cl)c7)C6(C)C)cn5)CC4)C3)cc1)=N[C@@H](C)c1nnc(C)n1-2 (stereo partly shown) [Compound I-572] | < 500 | < 500 |  | 
7 | < 500 | < 500 |  |  | Cc1sc2c(c1C)C(c1ccc(C3CC(N4CCN(c5cnc(C(=O)N[C@H]6C(C)(C)[C@H](Oc7ccc(C#N)c(Cl)c7)C6(C)C)cn5)CC4)C3)cc1)=N[C@@H](C)c1nnc(C)n1-2 (stereo partly shown) [Compound I-573] | < 500 | 500 to 1500 |  | 
8 | < 500 | 500 to 1500 |  |  | CC[C@@H]1N=C(c2ccc(C#CC3CC4(C3)CN(c3ncc(C(=O)N[C@H]5C(C)(C)[C@H](Oc6ccc(C#N)c(Cl)c6)C5(C)C)cn3)C4)cc2)c2c(sc(C)c2C)-n2c(C)nnc21 [Compound I-576] | < 500 | 500 to 1500 |  | 
9 | < 500 | < 500 |  |  | Cc1sc2c(c1C)C(c1ccc(C3CC(N4CCN(c5ccc(C(=O)N[C@H]6C(C)(C)[C@H](Oc7ccc(C#N)c(Cl)c7)C6(C)C)nc5)CC4)C3)cc1)=N[C@@H](C)c1nnc(C)n1-2 (stereo partly shown) [Compound I-577] | < 500 | 500 to 1500 |  | 
10 | < 500 | < 500 |  |  | Cc1sc2c(c1C)C(c1ccc(N3CCC4(C3)CN(c3cnc(C(=O)N[C@H]5C(C)(C)[C@H](Oc6ccc(C#N)c(Cl)c6)C5(C)C)cn3)C4)cc1)=N[C@@H](C)c1nnc(C)n1-2 [Compound I-578] | > 3000 | > 3000 |  | 
11 | < 500 | < 500 |  |  | CC[C@@H]1N=C(c2ccc(C#CC3CC4(C3)CN(c3cnc(C(=O)N[C@H]5C(C)(C)[C@H](Oc6ccc(C#N)c(Cl)c6)C5(C)C)cn3)C4)cc2)c2c(sc(C)c2C)-n2c(C)nnc21 [Compound I-583] | < 500 | 500 to 1500 |  | 
12 | < 500 | < 500 |  |  | COCC[C@@H]1N=C(c2ccc(OC3CC4(C3)CC3(CCN(c5ncc(C(=O)N[C@H]6C(C)(C)[C@H](Oc7ccc(C#N)c(Cl)c7)C6(C)C)cn5)CC3)C4)cc2)c2c(sc(C)c2C)-n2c(C)nnc21 [Compound I-584] | < 500 | > 3000 |  | 
13 | < 500 | < 500 |  |  | COCC[C@@H]1N=C(c2ccc(CC3CC4(CCN(c5ncc(C(=O)N[C@H]6C(C)(C)[C@H](Oc7ccc(C#N)c(Cl)c7)C6(C)C)cn5)CC4)C3)cc2)c2c(sc(C)c2C)-n2c(C)nnc21 [Compound I-585] | < 500 | > 3000 |  | 
14 | < 500 | < 500 |  |  | COCC[C@@H]1N=C(c2ccc(CC3CC4(CCN(c5cnc(C(=O)N[C@H]6C(C)(C)[C@H](Oc7ccc(C#N)c(Cl)c7)C6(C)C)cn5)CC4)C3)cc2)c2c(sc(C)c2C)-n2c(C)nnc21 [Compound I-586] | < 500 | > 3000 |  | 
15 | < 500 | < 500 |  |  | Cc1sc2c(c1C)C(c1ccc(N3C[C@@]4(F)CN(c5ncc(C(=O)N[C@H]6C(C)(C)[C@H](Oc7ccc(C#N)c(Cl)c7)C6(C)C)cn5)C[C@@]4(F)C3)cc1)=N[C@@H](C)c1nnc(C)n1-2 [Compound I-587] | < 500 | > 3000 |  | 
16 | 500 to 1500 | < 500 |  |  | Cc1sc2c(c1C)C(c1ccc(CC3CC4(CCN(c5ccc(C(=O)N(C)[C@H]6C(C)(C)[C@H](Oc7ccc(C#N)c(Cl)c7)C6(C)C)cn5)CC4)C3)cc1)=N[C@@H](C)c1nnc(C)n1-2 [Compound I-589] | < 500 | > 3000 |  | 
17 | < 500 | < 500 |  |  | Cc1sc2c(c1C)C(c1ccc(C3CN(C(=O)C4CCN(c5ncc(C(=O)N[C@H]6C(C)(C)[C@H](Oc7ccc(C#N)c(Cl)c7)C6(C)C)cn5)CC4)C3)cc1)=N[C@@H](C)c1nnc(C)n1-2 [Compound I-590] | < 500 | < 500 |  | 
18 | < 500 | < 500 |  |  | CC[C@@H]1N=C(c2ccc(N3CC(CC4CCN(c5ncc(C(=O)N[C@H]6C(C)(C)[C@H](Oc7ccc(C#N)c(Cl)c7)C6(C)C)cn5)CC4)C3)cc2)c2c(sc(C)c2C)-n2c(C)nnc21 [Compound I-593] | < 500 | > 3000 |  | 
19 | 1500 to 3000 | > 3000 |  |  | CC[C@@H]1N=C(c2ccc(N3CC(CC4CCN(c5cnc(C(=O)N[C@H]6C(C)(C)[C@H](Oc7ccc(C#N)c(Cl)c7)C6(C)C)cn5)CC4)C3)cc2)c2c(sc(C)c2C)-n2c(C)nnc21 [Compound I-594] | > 3000 | > 3000 |  | 
20 | > 3000 | < 500 |  |  | CC[C@@H]1N=C(c2ccc(N3CC(C4CCN(c5ncc(C(=O)N[C@H]6C(C)(C)[C@H](Oc7ccc(C#N)c(Cl)c7)C6(C)C)cn5)CC4)C3)cc2)c2c(sc(C)c2C)-n2c(C)nnc21 [Compound I-595] | < 500 | > 3000 |  | 
21 | > 3000 | < 500 |  |  | CC[C@@H]1N=C(c2ccc(CC3CC4(CCN(c5ncc(C(=O)N[C@H]6C(C)(C)[C@H](Oc7ccc(C#N)c(Cl)c7)C6(C)C)cn5)CC4)C3)cc2)c2c(sc(C)c2C)-n2c(C)nnc21 [Compound I-596] | < 500 | > 3000 |  | 
22 | < 500 | < 500 |  |  | CC[C@@H]1N=C(c2ccc(CC3CC4(CCN(c5cnc(C(=O)N[C@H]6C(C)(C)[C@H](Oc7ccc(C#N)c(Cl)c7)C6(C)C)cn5)CC4)C3)cc2)c2c(sc(C)c2C)-n2c(C)nnc21 [Compound I-597] | > 3000 | > 3000 |  | 
23 | < 500 | < 500 |  |  | CC[C@@H]1N=C(c2ccc(CC3CC4(CCN(c5ccc(C(=O)N[C@H]6C(C)(C)[C@H](Oc7ccc(C#N)c(Cl)c7)C6(C)C)cn5)CC4)C3)cc2)c2c(sc(C)c2C)-n2c(C)nnc21 [Compound I-598] | < 500 | > 3000 |  | 
24 | < 500 | < 500 |  |  | COCC[C@@H]1N=C(c2ccc(CC3CC4(CCN(c5ccc(C(=O)N[C@H]6C(C)(C)[C@H](Oc7ccc(C#N)c(Cl)c7)C6(C)C)cn5)CC4)C3)cc2)c2c(sc(C)c2C)-n2c(C)nnc21 [Compound I-599] | < 500 | > 3000 |  | 
25 | > 3000 |  |  | > 3000 | Cc1sc2c(c1C)C(c1ccc(OC3CC4(CCN(c5ncc(C(=O)N[C@H]6C(C)(C)[C@H](Oc7ccc(C#N)c(Cl)c7)C6(C)C)cn5)CC4)C3)cc1)=NC(C(F)(F)F)c1nnc(C)n1-2 (stereo partly shown) [Compound I-600] | > 3000 | > 3000 |  | 
26 |  |  | > 3000 | < 500 | Cc1sc2c(c1C)C(c1ccc(OC3CC4(CCN(c5ncc(C(=O)N[C@H]6C(C)(C)[C@H](Oc7ccc(C#N)c(Cl)c7)C6(C)C)cn5)CC4)C3)cc1)=NC(C(F)(F)F)c1nnc(C)n1-2 (stereo partly shown) [Compound I-601] |  |  | > 3000 | > 3000
27 | > 3000 | > 3000 |  |  | Cc1sc2c(c1C)C(c1ccc(Nc3ccc(N4CCN(c5ncc(C(=O)N[C@H]6C(C)(C)[C@H](Oc7ccc(C#N)c(Cl)c7)C6(C)C)cn5)CC4)c(C(F)(F)F)c3)cc1)=N[C@@H](C)c1nnc(C)n1-2 [Compound I-602] | > 3000 | > 3000 |  | 
28 | 500 to 1500 | 500 to 1500 |  |  | Cc1sc2c(c1C)C(c1ccc(CCC(=O)N3CC4(C3)CN(c3ncc(C(=O)N[C@H]5C(C)(C)[C@H](Oc6ccc(C#N)c(Cl)c6)C5(C)C)cn3)C4)cc1)=N[C@@H](C)c1nnc(C)n1-2 [Compound I-603] | < 500 | > 3000 |  | 
